Literature values in patent US20070275941A1, “SALT SENSITIVITY AND PREVENTION OF HYPERTENSION WITH DROSPIRENONE” (priority 2006, published 2007).

Tested on: postmenopausal women with hypertension

SMILES: C[C@]12CCC(=O)C=C1[C@@H]1C[C@@H]1[C@H]1[C@@H]3[C@@H]4C[C@@H]4[C@@]4(CCC(=O)O4)[C@@]3(C)CC[C@@H]12 [drospirenone]
- potassium sparing effect (clinical studies): demonstrated a potassium sparing effect
- blood pressure reduction (postmenopausal women with hypertension, alone or in combination with other agents): consistently and substantially reduce blood pressure
